Key:
[1] = test system: CD3^+ MR1-5-OP-RU tetramer^+ MAIT cells; test: MAIT cell proliferation in CTV-labeled PBMCs; type: cell-based, human; settings: 7-day culture, 5-OP-RU 10 µM, others 100 µM
MAIT cells from PBMCs = test: primary MAIT cell activation in PBMCs (CD69, TNF); type: cell-based, human; settings: 16-h incubation
soluble WT MR1 = test: fluorescence-based thermal shift (thermostability) assay of MR1–ligand complexes; type: binding, human; settings: MR1 refolded with the ligand, SYPRO Orange, 28 to 95°C, three independent experiments
[2] = test system: T1, MR1^R9H on C1R.MR1^R9H cells; test: cell surface MR1^R9H by flow cytometry; type: cell-based, human
T1 construct: expressed in transfected cells; host or cells: C1R cells stably transduced with MR1^R9H
From the text: (§1) We then tested the effect of the RF catabolites on the expression of two mutant versions of MR1 termed MR1^R9H ([Howson et al., 2020]) and MR1^K43A ([Reantragoon et al., 2013]). First, we tested the MR1^R9H mutant ([Howson et al., 2020]), which represents a rare, natural human polymorph. […] We used C1R.MR1^R9H cells, which are produced by stable transduction of wild-type C1R cells, which express low levels of wild-type MR1, with a vector expressing the MR1^R9H mutant ([Howson et al., 2020]). […] When C1R. […] Next, we sought to understand how the previously characterized K43A mutation affects ligand binding.
The level of MR1 expressed on the cell surface was measured after the exposure to the investigated ligands as previously described ([Awad et al., 2020a]; [Wang et al., 2022a]). C1R Ag-presenting B lymphocytes overexpressing MR1*01 (C1R.MR1), MR1^K43A mutant (C1R.MR1^K43A), MR1^R9H mutant (C1R.MR1^R9H), or HLA-A*02:01 (C1R-A2), in addition to the monocytic THP-1-MR1 cells, were used in this study. […] The PE fluorescence intensity reflects the surface MR1 level. The data were acquired with LSRFortessa X-20 (BD Biosciences) and Diva software (BD Biosciences) and analyzed using FlowJo software (BD Biosciences).

[3] = test system: T2, folded MR1 in C1R.MR1 cells; test: intracellular total folded MR1 by flow cytometry (8F2.F9); type: cell-based, human; settings: 16 h, 100 µM
T2 construct: expressed in transfected cells; host or cells: C1R B lymphoblastoid cells transduced with MR1*01

MR1 in C1R.MR1 cells = test system: T3, MR1 in C1R.MR1 cells; test: Endo H treatment and western blot of intracellular MR1; type: cell-based, human; settings: 16 h, Ac-6-FP 10 μM, RF and catabolites 100 μM
T3 construct: expressed in transfected cells; host or cells: C1R B lymphoblastoid cells transduced with MR1*01
Description: The downregulation of MR1 on the cell surface by the RF catabolites could be due to the depletion of the intracellular ER-resident MR1 pool, or due to the retention of MR1 in the ER, as shown for the DB28 ligand ([Salio et al., 2020]). To investigate this, C1R.MR1 cells were treated for 16 h with 100 µM RF or RF catabolites, conditions that induce MR1 downregulation (Fig. 3 A). Cells were lysed, and treated with endoglycosidase (Endo) H, to distinguish molecules that remain within the ER from those that have trafficked to the cell surface ([McWilliam et al., 2016]), and then, MR1 levels were assessed by immunoblotting (Fig. 3 A).
C1R.MR1 cells were cultured with different RF catabolites for 16 h, at 37°C. Samples were then treated with or without Endo H for 1-h incubation at 37°C. Cells were lysed, and lysate protein concentration was quantified by BCA assay. Equal amounts of samples (40 µg total protein) were separated on SDS-PAGE gels before being transferred onto nitrocellulose membranes and incubated with primary (anti-MR1; clone 8G3) ([McWilliam et al., 2020]) then corresponding secondary antibody (IRDye 800CW anti-mouse IgG, Cat. No. 925-32210; LICORbio). The protein bands were visualized by the Li-Cor system.

[4] = test system: T4, MR1^K43A on C1R.MR1^K43A cells; test: cell surface MR1^K43A by flow cytometry; type: cell-based, human; settings: 3 h
T4 construct: expressed in transfected cells; host or cells: C1R cells overexpressing MR1^K43A
From the text: as §1
The level of MR1 expressed on the cell surface was measured after the exposure to the investigated ligands as previously described ([Awad et al., 2020a]; [Wang et al., 2022a]). C1R Ag-presenting B lymphocytes overexpressing MR1*01 (C1R.MR1), MR1^K43A mutant (C1R.MR1^K43A), MR1^R9H mutant (C1R.MR1^R9H), or HLA-A*02:01 (C1R-A2), in addition to the monocytic THP-1-MR1 cells, were used in this study. 2 × 10^5 cells were incubated with RF catabolites for 3 or 16 h at 37°C and 5% CO2 in 200 μl folate-free RPMI 1640 medium from Gibco (Cat. No. 11875-093) fortified with 10% fetal bovine serum, sodium pyruvate (1 mmol/L), HEPES buffer (15 mmol/L), pH 7.2–7.5, 2% penicillin (100 U/ml), streptomycin ([…]), GlutaMAX (2 mmol/L), nonessential amino acids (0.1 mmol/L) (all from Thermo Fisher Scientific, Life Technologies), and 2-mercaptoethanol ([…], Sigma-Aldrich) (RF-10). After incubation, the cells were first stained with Zombie Aqua Fixable Viability Kit from BioLegend (Cat. No. 423102) and then incubated with biotinylated 8F2F9 αMR1 antibody for 30 min on ice. The unbound antibody was then washed off with 2% fetal bovine serum/PBS (called 2% FACS hereafter) buffer. The cells were finally incubated with PE-conjugated streptavidin (30 μg/ml; BioLegend) and then washed with 2% FACS buffer. The PE fluorescence intensity reflects the surface MR1 level. The data were acquired with LSRFortessa X-20 (BD Biosciences) and Diva software (BD Biosciences) and analyzed using FlowJo software (BD Biosciences).

[5] = test system: T5, human MR1–β2-microglobulin (β2m) complex; test: refolding of recombinant MR1-β2m with ligand; type: binding; settings: ligand added to refolding buffer; gel filtration and SDS-PAGE
T5 construct: plasmids encoding for the extracellular domains of MR1, β2m, and the AF-7 TCRα and TCRβ chains; made in house

[6] = test system: T6, surface MR1*01 on C1R.MR1 cells; test: quantification of cell surface MR1 by flow cytometry, C1R.MR1 cells; type: cell-based, human; settings: C1R.MR1 cells, 3 h, 1–200 µM, 8F2F9 antibody
T6 construct: expressed in transfected cells; host or cells: C1R B lymphoblastoid cells transduced with MR1*01

[7] = test system: SKW-3 cells expressing MAIT TCR AF-7; test: SKW-3 reporter T cell activation (CD69), coculture with C1R.MR1; type: cell-based; settings: for reactivity to 5-OP-RU (CD69): SKW-3-AF-7, in the presence of 1 nM 5-OP-RU; for reactivity to RL-7-Me (CD69): SKW-3-AF-7, in the presence of 100 nM RL-7-Me
Description: (§2) Given the intracellular MR1 retention induced by the RF catabolites, we anticipated that these ligands could influence the activity of MR1-reactive T cells. First, we utilized a system whereby reporter SKW-3 T cell lines were cocultured with C1R.MR1 APCs and activation was determined by CD69 expression. […] In contrast, SKW-3-MBV28 cells were inhibited by alloxazine but activated by lumichrome (Fig. S3, D–F). Two MR1-restricted TRAV1-2^−ve SKW-3 T cell lines were also tested.
(§3) C1R.MR1 cells (1 × 10^5) were initially stained with CTV (Thermo Fisher Scientific) for 15 min and then incubated with RF catabolites for 20 h. […] Cells were subsequently stained with PE-Cy7-conjugated anti-CD69 (1:100; BD Biosciences) and PE-labeled anti-MR1 (1:100, clone 26.5; BD Biosciences), before analysis on a LSRFortessa (BD Biosciences) flow cytometer. Activation of the SKW-3 cells was reflected by the cell surface CD69 expression.

SKW-3-MAV36 line = test: as above; type: cell-based; settings: SKW-3-MAV36, in the presence of 5-OP-RU
Description: as §2, §3

SKW-3-DGB129 line = test: as above; type: cell-based; settings: SKW-3-DGB129 cocultured with C1R.MR1
Description: as §2, §3

[8] = test system: SKW-3 cells expressing MAIT TCR MBV28; test: as above; type: cell-based; settings: SKW-3-MBV28, in the presence of 5-OP-RU
Description: as §2, §3

[9] = test system: T7, MR1 on PBMC-derived B lymphocytes; test: MR1 surface expression on primary B cells; type: cell-based; settings: primary human B cells, 16 h, highest doses, with or without 5-OP-RU
T7 construct: we also measured MR1 on the surface of cells expressing wild-type levels of MR1; endogenous in cells; host or cells: PBMC-derived B lymphocytes from healthy human donors

hMR1 protein = target: T8, hMR1 protein (Homo sapiens, UniProt Q95460); test: fluorescence polarization–based cell-free assay, competition with JYM20 for MR1 binding; settings: 50% inhibition of 10 nM JYM20 binding to 100 nM empty hMR1, 37°C; three independent experiments in triplicate
T8 construct: plasmids encoding for the extracellular domains of MR1, β2m, and the AF-7 TCRα and TCRβ chains; made in house; host or cells: Escherichia coli BL21(DE3)
T8 sequence (Q95460 23-302 limits assumed): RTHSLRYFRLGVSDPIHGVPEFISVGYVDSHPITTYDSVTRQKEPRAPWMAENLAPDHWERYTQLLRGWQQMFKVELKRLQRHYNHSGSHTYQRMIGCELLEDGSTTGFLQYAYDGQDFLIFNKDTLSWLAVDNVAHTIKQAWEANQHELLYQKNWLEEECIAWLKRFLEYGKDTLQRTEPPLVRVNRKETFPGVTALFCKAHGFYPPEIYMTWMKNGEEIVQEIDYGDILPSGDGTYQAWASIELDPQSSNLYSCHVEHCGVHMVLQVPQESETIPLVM
T8 sequence (P61769 21-119 partner): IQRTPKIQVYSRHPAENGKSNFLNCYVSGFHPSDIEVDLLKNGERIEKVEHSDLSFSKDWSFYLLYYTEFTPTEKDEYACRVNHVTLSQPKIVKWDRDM

[10] = test system: T9, surface MR1*01 on THP-1.MR1 cells; test: quantification of cell surface MR1 by flow cytometry, THP-1.MR1 cells; type: cell-based, human; settings: 3 h
T9 construct: expressed in transfected cells; host or cells: THP-1 monocytic cells transduced with MR1
Description: Next, we investigated whether these RF catabolites can impact MR1 cell surface expression in both MR1-transduced B cell lymphoblastoid (C1R.MR1) and monocytic (THP-1.MR1) cell lines (Fig. 2). Here, the cells were incubated with 1–200 µM of RF or the RF catabolites, and the cell surface levels of MR1 were quantified by flow cytometry ([Awad et al., 2020a]; [Keller et al., 2017]). […] The MR1 downregulation seen in C1R.MR1 cells was specific to MR1 as the level of HLA-A*02:01 was not affected after incubating C1R-A2 with the ligands (Fig. S1 E). […] This MR1 downregulation varied between cell types, with a higher extent observed in THP-1.MR1 than C1R.MR1, and was seen after staining with two different conformational anti-MR1 antibodies (clones 8F2F9 and 26.5; Fig. 2 G). Beyond APCs overexpressing MR1, we also measured MR1 on the surface of cells expressing wild-type levels of MR1.
The level of MR1 expressed on the cell surface was measured after the exposure to the investigated ligands as previously described ([Awad et al., 2020a]; [Wang et al., 2022a]). […] The PE fluorescence intensity reflects the surface MR1 level. The data were acquired with LSRFortessa X-20 (BD Biosciences) and Diva software (BD Biosciences) and analyzed using FlowJo software (BD Biosciences).

SMILES	Tm50 (half-maximum melting temperature), Mean ± SD (soluble WT MR1)	total level of folded MR1 (intracellular staining with 8F2.F9) [3]	MR1^K43A at the cell surface [4]	folding of the MR1-β2m cocomplex in solution [5]	reactivity to 5-OP-RU (CD69) [7]	reactivity to RL-7-Me (CD69) [7]	MR1 surface expression [9]	IC50 (hMR1 protein)	further results
CC(=O)C=Nc1c(NCC(O)C(O)C(O)CO)[nH]c(=O)[nH]c1=O [5-OP-RU, 5-(2-oxopropylideneamino)-6-D-ribitylaminouracil, reference compound]	58.14 ± 0.60 °C	–	–	–	–	–	–	–	MAIT cell proliferation [1]: significantly proliferated; CD69 upregulation on MAIT cells, ligand alone (MAIT cells from PBMCs): induced robust CD69 upregulation
CC(=O)Nc1nc2ncc(C=O)nc2c(=O)[nH]1 [Ac-6-FP, acetyl-6-FP, reference compound]	64.22 ± 0.27 °C	significantly increased total folded MR1	–	–	–	–	–	–	MR1^R9H surface level [2]: significantly increased; Endo H–resistant MR1 (MR1 in C1R.MR1 cells): increase in MR1 of a higher molecular weight, in line with Endo H resistance
O=c1nc2[nH]c3ccccc3nc-2c(=O)[nH]1 [Alloxazine, alloxazine]	–	increased the total level of folded MR1	increased MR1^K43A at the cell surface	facilitated the correct folding of the MR1-β2m cocomplex	not altered	inhibited in a dose-dependent manner	reduced MR1 surface expression	13.4 µM	MR1 cell surface expression [6]: reduced MR1 cell surface; reactivity to 5-OP-RU (CD69) (SKW-3-MAV36 line): inhibited; reactivity of MR1 autoreactive, nucleobase-adduct reactive line (CD69) (SKW-3-DGB129 line): inhibited; reactivity to 5-OP-RU (CD69) [8]: inhibited; Tm50 (half-maximum melting temperature), Mean ± SD (soluble WT MR1; listed as MR1-Alloxazine): 50.73 ± 0.45 °C
Cc1cc2nc3c(=O)[nH]c(=O)nc-3n(CC=O)c2cc1C [FMF, 10-formylmethylflavin]	–	increased the total level of folded MR1	–	facilitated the correct folding of the MR1-β2m cocomplex	–	–	–	53.6 µM	–
Cc1cc2nc3c(=O)[nH]c(=O)nc-3n(C)c2cc1C [Lumiflavin, lumiflavin]	–	–	increased MR1^K43A at the cell surface	facilitated the correct folding of the MR1-β2m cocomplex	enhanced activation	activation was enhanced	reduced MR1 surface expression	22.8 µM	MR1 cell surface expression [10]: downregulated MR1 after 3 h; Tm50 (half-maximum melting temperature), Mean ± SD (soluble WT MR1; listed as MR1-Lumiflavin): 52.02 ± 0.58 °C

— publication PMC12650265 (The Journal of Experimental Medicine, 2025)
